The assay concerns the target T1, Syk (Homo sapiens, UniProt P43405).
T1 construct: purchased Carna Biosciences
Description: Syk HTRF assay. It is filed as biochemical. Here is the method: Test compounds were prepared at a concentration of 1.5 mM in DMSO followed by 3-fold dilutions in Greiner […] polypropylene plates. A 1:4 dilution of compounds by 8 μL/well transfer from the polypropylene plates to 24 μL/well Assay Buffer in Costar 3710 384 well black plates was then performed. Kinases (13 μL/well) or Assay Buffer only (background controls; 50 mM HEPES pH 7.6, 1 mM DTT, 10 mM MgCl2, 0.01% Triton X100, 0.01% BSA and 0.1 mM EDTA) were added to Costar 3710 384-well black plates for the HTRF assays (Carna Biosciences) and compound was added from the 1:4 dilution plate. Syk start mix (87.5 μM ATP, 80 nM Substrate Peptide (American Peptide Company 332722) was added and the mixture was incubated at room temperature for 1 hour. Syk Stop Solution (120 mM EDTA in dilution buffer) was then added to the Syk HTRF assay plate and incubated at room temperature on a shaker for 2 minutes. Syk Antibody Mix (4.86 μg/mL DyLight 647 Streptavidin (Pierce 21824); 1 μg/mL Lance Eu-Anti-Phosphotyrosine (PerkinElmer AD0069)) was added to the Syk HTRF assay plate and the mixture was further incubated at room temperature for >4 h. Time resolved fluorescence was read in assay plates on a PerkinElmer EnVision. HTRF assays were performed using 320 nm excitation, 60 μs delay, 665 nm and 615 nm emission. Data was expressed by division of 665 nm by 615 nm emissions.
Background: TR-FRET usually uses a lanthanide donor and a delayed reading to cut background.

[1] abbreviates: IC50 activity level, read-out: Activity Level.
The mark [2] stands for this setting: activity levels A-D, read-out: Activity Level (IC50 in the Syk HTRF assay).
The mark [3] stands for this setting: read-out: Activity Level (Syk HTRF assay IC50).

Read-outs that look alike come from different tables or passages of the source.

`C1=C(c2cccc3nc(Nc4ccccc4)nn23)CCNC1` [Example 513, N-phenyl-5-(1,2,3,6-tetrahydropyridin-4-yl)-[1,2,4]triazolo[1,5-a]pyridin-2-amine]: the IC50 under setting [1] lay in the range of 1000 to 10000 nM.

For `FC(F)(F)c1ccc(Nc2nc3cccc(OC[C@@H]4CCCN4)n3n2)cc1` [Example 303, (S)-5-(pyrrolidin-2-ylmethoxy)-N-(4-(trifluoromethyl)phenyl)-[1,2,4]triazolo[1,5-a]pyridin-2-amine], under setting [2], the IC50 was 1000 to 10000 nM.

In the case of `NC(=O)c1cc(-c2cccc3nc(Nc4ccc(F)cc4)nn23)ccn1` [Example 416, 4-(2-(4-fluorophenylamino)-[1,2,4]triazolo[1,5-a]pyridin-5-yl)picolinamide], the IC50 under setting [1] fell in the range of 1000 to 10000 nM.

Regarding `O[C@H]1CC[C@@H](CNc2cccc3nc(Nc4ccc(C(F)(F)F)cc4)nn23)CC1` [Example 382, cis-4-((2-(4-(trifluoromethyl)phenylamino)-[1,2,4]triazolo[1,5-a]pyridin-5-ylamino)methyl)cyclohexanol], the IC50 under setting [2] was in the range of 1000 to 10000 nM.

Regarding `CNC(=O)c1ccc(Nc2nc3cccc(-c4ccccc4F)n3n2)cc1` [compound 21, 4-(5-(2-fluorophenyl)-[1,2,4]triazolo[1,5-a]pyridin-2-ylamino)-N-methylbenzamide], the IC50 under setting [3] was 500 to 1000 nM.

As to `c1ccc(Nc2nc3cccc(N[C@@H]4CCNC4)n3n2)cc1` [Example 474, (R)-N^2-phenyl-N^5-(pyrrolidin-3-yl)-[1,2,4]triazolo[1,5-a]pyridin-2,5-diamine], the IC50 under setting [1] lay in the range of 500 to 1000 nM.

Consider `Cn1ncc2cc(Nc3nc4cccc(CC5CCOCC5)n4n3)ccc21` [Example 550, N-(1-methyl-1H-indazol-5-yl)-5-((tetrahydro-2H-pyran-4-yl)methyl)-[1,2,4]triazolo[1,5-a]pyridin-2-amine], for which the IC50 under setting [1] is 0.005 to 250 nM.

Turning to `CNC(=O)c1ccc(Nc2nc3cccc(NC4CCOCC4)n3n2)cc1` [Example 456, N-methyl-4-(5-(tetrahydro-2H-pyran-4-ylamino)-[1,2,4]triazolo[1,5-a]pyridin-2-ylamino)benzamide], the IC50 under setting [1] was 1000 to 10000 nM.

`FC(F)(F)c1ccc(Nc2nc3cccc(CN4CCNCC4)n3n2)cc1` [Example 393, 5-(piperazin-1-ylmethyl)-N-(4-(trifluoromethyl)phenyl)-[1,2,4]triazolo[1,5-a]pyridin-2-amine]: the IC50 under setting [2] was in the range of 0.005 to 250 nM.

On to `CC(C)(O)[C@H]1CC[C@H](Nc2cccc3nc(Nc4ccc(C(F)(F)F)cc4)nn23)CC1` (stereo in doubt) [Example 397, trans-2-(4-(2-(4-(trifluoromethyl)phenylamino)-[1,2,4]triazolo[1,5-a]pyridin-5-ylamino)cyclohexyl)propan-2-ol], for which the IC50 under setting [2] was 1000 to 10000 nM.

As for `Cc1cc(Nc2nc3cccc(CN4CCNC(=O)C4)n3n2)cc2c1C(C)(C)C(=O)N2` [Example 546], the IC50 under setting [1] lay within 0.005 to 250 nM.

As for `CNC(=O)c1ccc(Nc2nc3cccc(-c4ccc(C(=O)O)cc4)n3n2)cc1` [compound 29, 4-(2-(4-(methylcarbamoyl)phenylamino)-[1,2,4]triazolo[1,5-a]pyridin-5-yl)benzoic acid], the IC50 under setting [3] is 1000 to 10000 nM.

Regarding `CC1(C)C(=O)Nc2cc(Nc3nc4cccc(N5CCC(O)CC5)n4n3)ccc21` [compound 114, 6-(5-(4-hydroxypiperidin-1-yl)-[1,2,4]triazolo[1,5-a]pyridin-2-ylamino)-3,3-dimethylindolin-2-one], the IC50 under setting [3] lay within 0.005 to 250 nM.

Consider `OC1CCC(Cc2cccc3nc(Nc4ccc(C(F)(F)F)cc4)nn23)CC1` (stereo in doubt) [Example 398, trans-4-((2-(4-(trifluoromethyl)phenylamino)-[1,2,4]triazolo[1,5-a]pyridin-5-yl)methyl)cyclohexanol], for which the IC50 under setting [2] lay in the range of 0.005 to 250 nM.

Turning to `CN(C)Cc1nc2cc(-c3cccc4nc(Nc5ccccc5)nn34)ccc2[nH]1` [Example 486, 5-(2-((dimethylamino)methyl)-1H-benzo[d]imidazol-5-yl)-N-phenyl-[1,2,4]triazolo[1,5-a]pyridin-2-amine], the IC50 under setting [1] lay in the range of 0.005 to 250 nM.

Turning to `CC1(C)C(=O)Nc2cc(Nc3nc4cccc(CN5CCNC(=O)C5)n4n3)ccc21` [Example 172, 3,3-dimethyl-6-(5-((3-oxopiperazin-1-yl)methyl)-[1,2,4]triazolo[1,5-a]pyridin-2-ylamino)indolin-2-one], the IC50 under setting [3] lay within 0.005 to 250 nM.

In the case of `Oc1cccc(-c2cccc3nc(Nc4ccccc4)nn23)c1` [Example 92], under setting [3], the IC50 lay within 0.005 to 250 nM.

Take `CN1C(=O)C(C)(C)c2ccc(Nc3nc4cccc(N[C@H]5CC[C@](C)(O)CC5)n4n3)cc21` [compound 110]: the IC50 under setting [3] was in the range of 0.005 to 250 nM.

As for `c1ccc(-c2cccc3nc(Nc4ccc5cn[nH]c5c4)nn23)cc1` [compound 68], the IC50 under setting [3] lay in the range of 0.005 to 250 nM.

For the molecule `Cc1n[nH]c2ccc(Nc3nc4cccc(N[C@@H]5CCOC5)n4n3)cc12` [compound 115], the IC50 under setting [3] lay in the range of 250 to 500 nM.

For `CNC(=O)c1ccc(Nc2nc3cccc(-c4cccc(-c5cnc[nH]5)c4)n3n2)cc1` [compound 7, 4-(5-(3-(1H-imidazol-5-yl)phenyl)-[1,2,4]triazolo[1,5-a]pyridin-2-ylamino)-N-methylbenzamide], under setting [3], the IC50 is 0.005 to 250 nM.

Consider `CC1CN(Cc2cccc3nc(Nc4ccc(C(F)(F)F)cc4)nn23)CC(=O)N1` (stereo not drawn) [Example 282, 6-methyl-4-((2-(4-(trifluoromethyl)phenylamino)-[1,2,4]triazolo[1,5-a]pyridin-5-yl)methyl)piperazin-2-one], for which the IC50 under setting [2] lay in the range of 1000 to 10000 nM.

In the case of `Nc1ccc(-c2cccc3nc(Nc4ccccc4)nn23)cc1` [compound 82, 5-(4-aminophenyl)-N-phenyl-[1,2,4]triazolo[1,5-a]pyridin-2-amine], the IC50 under setting [3] was 250 to 500 nM.

On to `c1cc(N[C@@H]2CCCNC2)n2nc(Nc3ccc4nn[nH]c4c3)nc2c1` [Example 455, (R)-N^2-(1H-benzo[d][1,2,3]triazol-6-yl)-N^5-(piperidin-3-yl)-[1,2,4]triazolo[1,5-a]pyridine-2,5-diamine], for which the IC50 under setting [1] is 250 to 500 nM.

On to `Cc1n[nH]c2cc(Nc3nc4cccc(NC5CCOCC5)n4n3)ccc12` [Example 209, N^2-(3-methyl-1H-indazol-6-yl)-N^5-(tetrahydro-2H-pyran-4-yl)-[1,2,4]triazolo[1,5-a]pyridin-2,5-diamine], for which the IC50 under setting [2] lay in the range of 0.005 to 250 nM.

Turning to `OC1CCN(c2ccc(Nc3nc4cccc(N[C@H]5CC[C@@H](O)CC5)n4n3)cn2)CC1` [Example 294, cis-1-(5-(5-(4-hydroxycyclohexylamino)-[1,2,4]triazolo[1,5-a]pyridin-2-ylamino)pyridin-2-yl)piperidin-4-ol], the IC50 under setting [2] lay in the range of 0.005 to 250 nM.

With `FC(F)(F)c1ccc(Nc2nc3cccc(CC4CCNCC4)n3n2)cc1` [Example 395, 5-(piperidin-4-ylmethyl)-N-(4-(trifluoromethyl)phenyl)-[1,2,4]triazolo[1,5-a]pyridin-2-amine], the IC50 under setting [2] was 0.005 to 250 nM.

Turning to `OC(Cc1cccc2nc(Nc3ccc(F)cc3)nn12)C1CCNCC1` (stereo not drawn) [Example 425, 2-(2-(4-fluorophenylamino)-[1,2,4]triazolo[1,5-a]pyridin-5-yl)-1-(piperidin-4-yl)ethanol], the IC50 under setting [1] lay within 1000 to 10000 nM.

With `Nc1noc2ccc(Nc3nc4cccc(-c5ccccc5)n4n3)cc12` [compound 42], the IC50 under setting [3] lay in the range of 0.005 to 250 nM.

`O[C@H]1CC[C@@H](Nc2cccc3nc(Nc4ccnc(NCCN5CCCC5)c4)nn23)CC1` [Example 278, cis-4-(2-(2-(2-(pyrrolidin-1-yl)ethylamino)pyridin-4-ylamino)-[1,2,4]triazolo[1,5-a]pyridin-5-ylamino)cyclohexanol]: under setting [2], the IC50 lay in the range of 0.005 to 250 nM.
